Data reported in patent publication US9387200B2, “Isothiazole-pyridine derivatives as modulators of HIF (hypoxia inducible factor) activity” (FibroGen, Inc., priority 2008, dated 2016).

target: T1, HIF-PH2 (Homo sapiens, UniProt Q9GZT9); experiment: HIF-PH assay (14CO2 capture, peptide-dependent turnover); format: biochemical; settings: compound concentration 22.22 μM
T1 construct: made in house; host or cells: insect Hi5 cells
From the text: Ketoglutaric acid α-[1-^14C]-sodium salt, alpha-ketoglutaric acid sodium salt, and HPLC purified peptide may be obtained from commercial sources, e.g., Perkin-Elmer (Wellesley Mass.), Sigma-Aldrich, and SynPep Corp. (Dublin Calif.), respectively. Peptides for use in the assay may be fragments of HIFα as described above or as disclosed in International Publication WO 2005/118836, incorporated by reference herein. For example, a HIF peptide for use in the HIF-PH assay is [methoxycoumarin]-DLDLEALAPYIPADDDFQL-amide. HIF-PH, e.g., HIF-PH2 (EGLN1), can be expressed in, e.g., insect Hi5 cells, and partially purified, e.g., through a SP ion exchange chromatography column. Enzyme activity is determined by capturing ^14CO2 using an assay described by Kivirikko and Myllyla (1982, Methods Enzymol. 82:245-304). Assay reactions contain 50 mM HEPES (pH 7.4), 100 μM α-ketoglutaric acid sodium salt, 0.30 μCi/mL ketoglutaric acid α-[1-^14C]-sodium salt, 40 μM FeSO4, 1 mM ascorbate, 1541.8 units/mL Catalase, with or without 50 μM peptide substrate and various concentrations of compound of the invention. Reactions are initiated by addition of HIF-PH enzyme.
The peptide-dependent percent turnover is calculated by subtracting percent turnover in the absence of peptide from percent turnover in the presence of substrate peptide. Percent inhibition and IC50 are calculated using peptide-dependent percent turnover at given inhibitor concentrations. Calculation of IC50 values for each inhibitor is conducted using GraFit software (Erithacus Software Ltd., Surrey UK).
Representative compounds of the invention were analyzed using the HIF-PH assay described above. Table I below presents enzyme inhibition data for exemplary compounds against HIF-PH2, a representative HIF prolyl hydroxylase enzyme. By inhibiting HIF prolyl hydroxylase enzymes, compounds of the invention stabilize HIFα, which then combines with HIFβ to form an active transcription factor that increases expression of various genes involved in numerous beneficial cellular processes.

T1 sequence (Q9GZT9 whole entry, species assumed): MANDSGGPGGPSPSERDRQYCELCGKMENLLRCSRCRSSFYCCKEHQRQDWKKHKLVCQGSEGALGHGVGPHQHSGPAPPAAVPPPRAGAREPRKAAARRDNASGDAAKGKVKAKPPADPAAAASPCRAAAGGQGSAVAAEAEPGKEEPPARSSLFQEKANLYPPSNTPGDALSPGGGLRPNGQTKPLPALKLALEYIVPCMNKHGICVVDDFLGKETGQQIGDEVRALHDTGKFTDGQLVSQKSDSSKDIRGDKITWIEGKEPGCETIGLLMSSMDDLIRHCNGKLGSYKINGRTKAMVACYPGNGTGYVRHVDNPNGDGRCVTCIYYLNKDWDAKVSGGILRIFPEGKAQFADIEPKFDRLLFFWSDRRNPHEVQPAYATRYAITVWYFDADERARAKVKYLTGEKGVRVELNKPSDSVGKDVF

Structure (SMILES)	inhibition at 22.22 µM
Cc1nsc2c(-c3cnccn3)nc(C(=O)NCC(=O)O)c(O)c12 [Example 40, [(4-Hydroxy-3-methyl-7-pyrazin-2-yl-isothiazolo[5,4-c]pyridine-5-carbonyl)-amino]-acetic acid]	70%
Cc1nsc2c(O)c(C(=O)NCC(=O)O)nc(-c3cnccn3)c12 [Example 41, [(7-Hydroxy-3-methyl-4-pyrazin-2-yl-isothiazolo[4,5-c]pyridine-6-carbonyl)-amino]-acetic acid]	98%
O=C(O)CNC(=O)c1nc(-c2ccccc2)c2c(Cn3ccc4ccccc43)nsc2c1O [Example 42, [(7-Hydroxy-3-indol-1-ylmethyl-4-phenyl-isothiazolo[4,5-c]pyridine-6-carbonyl)-amino]-acetic acid]	100%
O=C(O)CNC(=O)c1ncc2snc(-c3ccccc3)c2c1O [Example 43, [(4-Hydroxy-3-phenyl-isothiazolo[5,4-c]pyridine-5-carbonyl)-amino]-acetic acid]	97%
Cc1nc(C(=O)NCC(=O)O)c(O)c2c(-c3ccccc3)nsc12 [Example 44, [(4-Hydroxy-7-methyl-3-phenyl-isothiazolo[5,4-c]pyridine-5-carbonyl)-amino]-acetic acid]	91%
O=C(O)CNC(=O)c1nc(-c2ccccc2)c2snc(-c3ccccc3)c2c1O [Example 45, [(4-Hydroxy-3,7-diphenyl-isothiazolo[5,4-c]pyridine-5-carbonyl)-amino]-acetic acid]	97%

same assay, conditions: compound concentration 200 μM

Structure (SMILES)	inhibition at 200 µM
O=C(O)CNC(=O)c1ncc2snc(-c3ccccc3F)c2c1O [Example 33, {[3-(2-Fluoro-phenyl)-4-hydroxy-isothiazolo[5,4-c]pyridine-5-carbonyl]-amino}-acetic acid]	100%
O=C(O)CNC(=O)c1nc(-c2ccccc2)c2snc(-c3ccccc3F)c2c1O [Example 34, {[3-(2-Fluoro-phenyl)-4-hydroxy-7-phenyl-isothiazolo[5,4-c]pyridine-5-carbonyl]-amino}-acetic acid]	100%
O=C(O)CNC(=O)c1nc(-c2ccc(Oc3ccccc3)cc2)c2snc(-c3ccccc3F)c2c1O [Example 35, {[3-(2-Fluoro-phenyl)-4-hydroxy-7-(4-phenoxy-phenyl)-isothiazolo[5,4-c]pyridine-5-carbonyl]-amino}-acetic acid]	100%
Cc1nc(C(=O)NCC(=O)O)c(O)c2c(-c3ccccc3F)nsc12 [Example 36, {[3-(2-Fluoro-phenyl)-4-hydroxy-7-methyl-isothiazolo[5,4-c]pyridine-5-carbonyl]-amino}-acetic acid]	100%
Cc1nsc2c(-c3cccnc3)nc(C(=O)NCC(=O)O)c(O)c12 [Example 37, [(4-Hydroxy-3-methyl-7-pyridin-3-yl-isothiazolo[5,4-c]pyridine-5-carbonyl)-amino]-acetic acid]	100%
Cc1nsc2c(-c3ccccn3)nc(C(=O)NCC(=O)O)c(O)c12 [Example 38, [(4-Hydroxy-3-methyl-7-pyridin-2-yl-isothiazolo[5,4-c]pyridine-5-carbonyl)-amino]-acetic acid]	74%
C#Cc1nc(C(=O)NCC(=O)O)c(O)c2c(C)nsc12 [Example 39, [(7-Ethynyl-4-hydroxy-3-methyl-isothiazolo[5,4-c]pyridine-5-carbonyl)-amino]-acetic acid]	100%
CCc1nc(C(=O)NCC(=O)O)c(O)c2c(C)nsc12 [Example 46, [(7-Ethyl-4-hydroxy-3-methyl-isothiazolo[5,4-c]pyridine-5-carbonyl)-amino]-acetic acid]	99%
CCc1nc(C(=O)NCC(=O)O)c(O)c2snc(C)c12 [Example 47, [(4-Ethyl-7-hydroxy-3-methyl-isothiazolo[4,5-c]pyridine-6-carbonyl)-amino]-acetic acid]	99%
